System: subjects with GERD
Conditions: human, in vivo
From the text: The study began in March 2020 when a total of 110 subjects were screened for GERD using stringent eligibility criteria by the study coordinator and the principal investigator. […] The subjects acted as their own controls and there was no placebo arm. All subjects had active symptoms as determined by verbal history and daily ReQuest (RQ) validated GERD questionnaire symptom scores above specified thresholds, or GERD symptoms at four or more days per week.
As of May 2021, 44 subjects had completed the following protocol. […] Symptom evaluation for each included: RQ_GI: acid and abdominal (upper/lower) complaints, nausea; RQ_WSO: general well-being, sleep disturbances, and other complaints; and RQ_TOT: the sum of both. The Short Form 36 Health Survey validated questionnaire (see webpage physio-pedia.com/36-Item_Short_Form_Survey_(SF-36)) was used to assess quality of life. The SF-36 form was completed by subjects on day seven of week zero as well as on each day seven per week during the study duration. The subjects had to report any usage of GERD medications such as PPIs, H2 antagonists, and acids throughout the study, as well as any changes in their other medications. The primary endpoint was tolerability, defined as ending on week four with a request symptom score and a SF-36 score that was at or better than the baseline week zero score (determined as >0% reduction in weekly mean RQ symptom scores as % from baseline to week 4). Statistical analysis was done using the Wilcoxon signed-rank test with multiple comparison correction. In addition, a comparison was made of the number of days without acid complaints per week, or the heartburn-free days per week, for week four compared to the week zero baseline.
It was taken 1 g daily at bedtime.
All subjects had active GERD symptoms as determined by the ReQuest validated GERD specific questionnaire and/or GERD symptoms at least 4 days per week. […] All subjects were screened per the eligibility criteria delineated in this protocol by the study coordinator. The study was done remotely. There was communication but no in person contact or visits with the study coordinator.
Two phases were designed into this study. Phase 1 was the Screening Phase (SP). Phase 2 was the Tolerability Phase (TP). Subjects were instructed to take a daily GERD symptom questionnaire, the ReQuest Short Version, daily throughout the study. At five timepoints, specific scores were established for comparison and statistical analysis.

nausea, number of patients: 2 patients | nausea, share of patients: 5% | subjects who either did not improve or got worse: Five | worsening of RQ_GI (gastrointestinal symptoms), number of subjects: 5 of 44 | worsening of RQ_TOT (total scores), number of subjects: 4 of 44 | worsening of RQ_TOT (total scores), share of subjects: 9%
Substance: maltosyl-isomaltooligosaccharides [ISOT-101]
ISOT-101-related adverse events: no ISOT-101-related adverse events | tolerability (in words): well tolerated

From patent publication US20220409646A1, “MALTOSYL-ISOMALTO-OLIGOSACCHARIDES REDUCE SYMPTOMS OF GASTROESOPHAGEAL REFLUX DISEASE” (ISOThrive Inc., priority 2021, published 2022)
